The supplement of paper PMC11061612

How the values were obtained:
Experiment in all cases: Bliss excess, mean over the matrix (fraction); higher = more synergy
[1] = test system: MOLT-4 (T-Lymphoblastic Leukemia)
Procedure, shortened: (§1)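 After 24 hours at 37°C and 5% CO2 in 1536-well plates, cells in DMEM/F12 or RPMI plus 10% FBS received two-drug dose matrices for 72 hours. Viability came from CellTiter-Glo 2.0 luminescence and was scaled as inhibition, anchored at 0 by vehicle wells and at 1 by blank wells. Combination Emax is taken as the second-highest inhibition in the matrix, and Bliss excess as the observed combination effect less EA + EB − EA·EB, with EA and EB the single-agent effects.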

[2] = test system: COLO-668 (Small Cell Lung Carcinoma)
Procedure, shortened: as §1

[3] = test system: G-401 (Other Solid Carcinomas)
Procedure, shortened: as §1

[4] = test system: NCI-H2122 (Lung Adenocarcinoma)
Procedure, shortened: as §1

[5] = test system: HCC1500 (Breast Carcinoma)
Procedure, shortened: as §1

[6] = test system: NCI-H1355 (Lung Adenocarcinoma)
Procedure, shortened: as §1

[7] = test system: SK-N-AS (Neuroblastoma)
Procedure, shortened: as §1

[8] = test system: A4-Fuk (B-Lymphoblastic Leukemia)
Procedure, shortened: as §1

[9] = test system: LC-1-sq (Squamous Cell Lung Carcinoma)
Procedure, shortened: as §1

[10] = test system: SKN (Other Solid Carcinomas)
Procedure, shortened: as §1

[11] = test system: COLO-679 (Melanoma)
Procedure, shortened: as §1

[12] = test system: ME-180 (Cervical Carcinoma)
Procedure, shortened: as §1

[13] = test system: ALL-SIL (T-Lymphoblastic Leukemia)
Procedure, shortened: as §1

[14] = test system: NCI-H522 (Lung Adenocarcinoma)
Procedure, shortened: as §1

[15] = test system: OE33 (Esophageal Adenocarcinoma)
Procedure, shortened: as §1

[16] = test system: MDA-MB-453 (Breast Carcinoma)
Procedure, shortened: as §1

[17] = test system: ML-2 (Acute Myeloid Leukemia)
Procedure, shortened: as §1

[18] = test system: Mo-T (Other Blood Carcinomas)
Procedure, shortened: as §1

[19] = test system: NCI-H1838 (Lung Adenocarcinoma)
Procedure, shortened: as §1

[20] = test system: NCI-H650 (Lung Adenocarcinoma)
Procedure, shortened: as §1

| SMILES | Bliss excess [1] | Bliss excess [2] | Bliss excess [3] | Bliss excess [4] | Bliss excess [5] | Bliss excess [6] | Bliss excess [7] | Bliss excess [8] | Bliss excess [9] | Bliss excess [10] | Bliss excess [11] | Bliss excess [12] | Bliss excess [13] | Bliss excess [14] | Bliss excess [15] | Bliss excess [16] | Bliss excess [17] | Bliss excess [18] | Bliss excess [19] | Bliss excess [20] |
| --- | --- | --- | --- | --- | --- | --- | --- | --- | --- | --- | --- | --- | --- | --- | --- | --- | --- | --- | --- | --- |
| NC1(C(=O)N[C@@H](CCO)c2ccc(Cl)cc2)CCN(c2ncnc3[nH]ccc23)CC1 [Capivasertib] + Cn1cnc2c(F)c(Nc3ccc(Br)cc3Cl)c(C(=O)NOCCO)cc21 [Selumetinib] (first compound max 10 µM, 7x7, partner max 10 µM) | 0.0752 | -0.0088 | 0.0695 | 0.0107 | 0.0004 | 0.0132 | 0.0046 | 0.0675 | 0.0027 | -0.0264 | -0.0912 | -0.0232 | 0.0381 | -0.0098 | 0.0301 | 0.0079 | 0.0654 | 0.0563 | -0.0124 | -0.0368 |
| COc1cccc2c1C(=O)c1c(O)c3c(c(O)c1C2=O)C[C@@](O)(C(=O)CO)C[C@@H]3O[C@H]1C[C@H](N)[C@H](O)[C@H](C)O1 [Doxorubicin] + Cc1cc2ncnn2cc1Nc1ncc2c(n1)n(C1CCOCC1)c(=O)n2C [AZD7648] (first compound max 1 µM, 7x7, partner max 10 µM) | 0.135 | 0.0633 | 0.0259 | 0.0669 | 0.0605 | 0.0337 | 0.0664 | -0.018 | 0.117 | 0.0231 | 0.0178 | 0.0438 | 0.0857 | 0.0072 | 0.0114 | 0.0432 | 0.0281 | 0.0096 | -0.0577 | 0.0195 |
| CS(=O)(=O)CCNCc1ccc(-c2ccc3ncnc(Nc4ccc(OCc5cccc(F)c5)c(Cl)c4)c3c2)o1 [Lapatinib] + C[C@@H](Oc1cc(-c2cnn(C3CCNCC3)c2)cnc1N)c1c(Cl)ccc(F)c1Cl [Crizotinib] (first compound max 10 µM, 7x7, partner max 10 µM) | -0.0084 | -0.0594 | -0.0617 | -0.0181 | 0.0412 | -0.0141 | -0.0676 | -0.0407 | 0.0171 | -0.0289 | -0.066 | -0.0227 | 0.0033 | -0.0362 | 0.151 | 0.0232 | -0.0133 | -0.0658 | -0.0919 | -0.0521 |
| CC(=O)c1c(C)c2cnc(Nc3ccc(N4CCNCC4)cn3)nc2n(C2CCCC2)c1=O [Palbociclib] + CC1(C)CCC(CN2CCN(c3ccc(C(=O)NS(=O)(=O)c4ccc(NCC5CCOCC5)c([N+](=O)[O-])c4)c(Oc4cnc5[nH]ccc5c4)c3)CC2)=C(c2ccc(Cl)cc2)C1 [Venetoclax] (first compound max 10 µM, 7x7, partner max 1 µM) | -0.0654 | -0.0554 | 0.0529 | -0.0327 | -0.0899 | -0.0031 | -0.0354 | -0.0926 | -0.0161 | -0.0402 | -0.0676 | -0.0622 | 0.0428 | -0.0428 | -0.0458 | 0.0091 | 0.0634 | -0.0648 | 0.0042 | -0.0508 |
| CC(=O)c1c(C)c2cnc(Nc3ccc(N4CCNCC4)cn3)nc2n(C2CCCC2)c1=O [Palbociclib] + Cc1c2c(nn1C)CSCc1cc(n(C)n1)CSc1cc(c3ccccc3c1)OCCCc1c(C(=O)O)n(C)c3c-2c(Cl)ccc13 [AZD5991] (first compound max 10 µM, 7x7, partner max 1 µM) | -0.0073 | -0.0288 | 0.0308 | -0.0218 | -0.0145 | -0.0147 | -0.006 | 0.0579 | -0.0587 | -0.0465 | -0.107 | -0.0545 | -0.0576 | -0.0258 | -0.0041 | -0.0218 | 0.0133 | -0.0208 | -0.0634 | -0.0583 |
| CC(=O)c1c(C)c2cnc(Nc3ccc(N4CCNCC4)cn3)nc2n(C2CCCC2)c1=O [Palbociclib] + Cn1cnc2c(F)c(Nc3ccc(Br)cc3Cl)c(C(=O)NOCCO)cc21 [Selumetinib] (first compound max 10 µM, 7x7, partner max 10 µM) | -0.012 | 0.0008 | -0.0428 | 0.0823 | -0.0229 | 0.0542 | 0.0583 | 0.132 | -0.0004 | 0.0085 | 0.0157 | 0.0042 | -0.0358 | -0.0389 | -0.02 | -0.036 | 0.0685 | -0.0225 | -0.0003 | 0.0058 |
| COc1cccc(OCCCN)c1-c1cc(Nc2cnc(C#N)cn2)n[nH]1 [Prexasertib] + C=CCn1c(=O)c2cnc(Nc3ccc(N4CCN(C)CC4)cc3)nc2n1-c1cccc(C(C)(C)O)n1 [AZD1775] (first compound max 1 µM, partner max 1 µM) | 0.0873 | 0.0952 | 0.0612 | 0.0341 | 0.146 | -0.0039 | 0.0218 | -0.0205 | 0.0581 | 0.0515 | 0.0059 | 0.0017 | 0.0648 | 0.143 | 0.0352 | 0.0702 | 0.045 | 0.0023 | -0.131 | 0.0382 |
| COc1cccc(OCCCN)c1-c1cc(Nc2cnc(C#N)cn2)n[nH]1 [Prexasertib] + CCc1c2c(nc3ccc(O)cc13)-c1cc3c(c(=O)n1C2)COC(=O)[C@]3(O)CC [SN-38] (first compound max 1 µM, 7x7, partner max 0.3 µM) | -0.0075 | -0.0788 | -0.0398 | -0.0405 | -0.0269 | 0.0231 | 0.0088 | -0.0592 | 0.0039 | 0.0807 | -0.111 | 0.0232 | -0.0093 | 0.163 | -0.0165 | 0.0234 | -0.007 | -0.0465 | -0.0001 | -0.0227 |
| COc1cccc(OCCCN)c1-c1cc(Nc2cnc(C#N)cn2)n[nH]1 [Prexasertib] + CN(C)CCCOc1ccc(-c2ccc3ncc4c(c3c2)n(C2CCOCC2)c(=O)n4C)cn1 [AZD0156] (first compound max 1 µM, 7x7, partner max 1 µM) | 0.0108 | -0.0161 | -0.0265 | -0.0115 | 0.0475 | -0.0429 | -0.0026 | -0.0593 | -0.0038 | 0.0519 | 0.0127 | -0.0255 | -0.0838 | -0.0189 | -0.0272 | -0.0509 | 0.003 | 0.0105 | -0.0285 | -0.008 |
| COc1cccc(OCCCN)c1-c1cc(Nc2cnc(C#N)cn2)n[nH]1 [Prexasertib] + C[C@@H]1COCCN1C2=NC(=NC(=C2)C3(CC3)[S@](=N)(=O)C)C4=C5C=CNC5=NC=C4 [AZD6738] (first compound max 1 µM, 7x7, partner max 10 µM) | 0.0087 | 0.0269 | 0.0399 | -0.0262 | 0.0568 | 0.0276 | -0.011 | -0.0602 | -0.0361 | -0.02 | -0.0836 | 0.0255 | -0.0175 | 0.0392 | -0.0334 | -0.0036 | -0.0361 | -0.0463 | -0.174 | -0.0278 |
| COc1cccc(OCCCN)c1-c1cc(Nc2cnc(C#N)cn2)n[nH]1 [Prexasertib] + Cc1cc2ncnn2cc1Nc1ncc2c(n1)n(C1CCOCC1)c(=O)n2C [AZD7648] (first compound max 1 µM, 7x7, partner max 10 µM) | 0.0091 | -0.0459 | -0.0221 | -0.0289 | 0.0354 | -0.0405 | -0.0015 | -0.0989 | 0.0099 | -0.0238 | -0.0157 | 0.0041 | -0.0258 | -0.0005 | 0.0061 | -0.0143 | -0.0357 | 0.0159 | -0.0126 | -0.0389 |
| COc1cccc(OCCCN)c1-c1cc(Nc2cnc(C#N)cn2)n[nH]1 [Prexasertib] + O=C(c1cc(Cc2n[nH]c(=O)c3ccccc23)ccc1F)N1CCN(C(=O)C2CC2)CC1 [Olaparib] (first compound max 1 µM, 7x7, partner max 10 µM) | 0.0154 | -0.0759 | -0.166 | -0.0471 | -0.004 | -0.0448 | -0.0412 | 0.0189 | -0.0468 | -0.0209 | -0.0407 | -0.0511 | -0.0222 | -0.0491 | -0.0925 | -0.128 | -0.0006 | 0.0066 | -0.153 | -0.0442 |
| CCc1c2c(nc3ccc(O)cc13)-c1cc3c(c(=O)n1C2)COC(=O)[C@]3(O)CC [SN-38] + CN(C)CCCOc1ccc(-c2ccc3ncc4c(c3c2)n(C2CCOCC2)c(=O)n4C)cn1 [AZD0156] (first compound max 0.3 µM, 7x7, partner max 1 µM) | 0.069 | -0.0198 | 0.0568 | 0.151 | 0.0076 | -0.0107 | -0.0061 | 0.0222 | 0.0912 | -0.0094 | -0.0767 | -0.0259 | -0.0475 | 0.0294 | 0.0575 | -0.0505 | 0.0256 | -0.0527 | -0.0741 | -0.0066 |
| Cn1cnc2c(F)c(Nc3ccc(Br)cc3Cl)c(C(=O)NOCCO)cc21 [Selumetinib] + C=CCn1c(=O)c2cnc(Nc3ccc(N4CCN(C)CC4)cc3)nc2n1-c1cccc(C(C)(C)O)n1 [AZD1775] (first compound max 10 µM, partner max 1 µM) | -0.02 | -0.0563 | -0.0483 | 0.0552 | -0.0261 | -0.0037 | 0.0024 | -0.0651 | -0.095 | -0.0294 | -0.0285 | -0.071 | -0.0934 | -0.059 | -0.0911 | -0.0065 | -0.0186 | -0.0318 | -0.0506 | 0.0099 |
| Cn1cnc2c(F)c(Nc3ccc(Br)cc3Cl)c(C(=O)NOCCO)cc21 [Selumetinib] + CC(C)n1c(=O)n(C)c2cnc3cc(F)c(-c4ccc(OCCCN5CCCCC5)nc4)cc3c21 [AZD1390] (first compound max 10 µM, 7x7, partner max 0.3 µM) | 0.0535 | 0.0314 | -0.0623 | -0.0099 | -0.0156 | 0.0043 | -0.019 | 0.0335 | -0.0465 | -0.0616 | -0.0416 | -0.0521 | -0.0164 | -0.0483 | -0.0277 | -0.0148 | -0.0506 | -0.0339 | -0.0514 | -0.0329 |
